Each compound was assayed against T1, HCMV polymerase (Human cytomegalovirus, UniProt P08546) (assay: HCMV polymerase scintillation proximity assay (SPA), modified version). Settings: CMV polymerase; Table 1; modified assay with 4.5 mM DTT, compounds in 100% DMSO; read-out: Antiviral Selective Polymerase IC50 Values, CMV.
T1 construct: made in house; host or cells: recombinant baculovirus-infected SF-9 cells
Format: biochemical
Procedure, shortened: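 SPA measuring 3H-dTTP (90 nM) incorporation on 6 nM biotinylated poly(dA)-oligo(dT) by SF-9-expressed enzyme, pH 7.5 HEPES/KCl/MgCl2/BSA buffer with or without 2 mM CHAPS. Run at 25° C or 37° C, stopped with EDTA while linear (HCMV 30 min); IC50 from linear regression. Modified format adds 4.5 mM DTT, compounds diluted in 100% DMSO.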

T1 sequence (P08546 whole entry): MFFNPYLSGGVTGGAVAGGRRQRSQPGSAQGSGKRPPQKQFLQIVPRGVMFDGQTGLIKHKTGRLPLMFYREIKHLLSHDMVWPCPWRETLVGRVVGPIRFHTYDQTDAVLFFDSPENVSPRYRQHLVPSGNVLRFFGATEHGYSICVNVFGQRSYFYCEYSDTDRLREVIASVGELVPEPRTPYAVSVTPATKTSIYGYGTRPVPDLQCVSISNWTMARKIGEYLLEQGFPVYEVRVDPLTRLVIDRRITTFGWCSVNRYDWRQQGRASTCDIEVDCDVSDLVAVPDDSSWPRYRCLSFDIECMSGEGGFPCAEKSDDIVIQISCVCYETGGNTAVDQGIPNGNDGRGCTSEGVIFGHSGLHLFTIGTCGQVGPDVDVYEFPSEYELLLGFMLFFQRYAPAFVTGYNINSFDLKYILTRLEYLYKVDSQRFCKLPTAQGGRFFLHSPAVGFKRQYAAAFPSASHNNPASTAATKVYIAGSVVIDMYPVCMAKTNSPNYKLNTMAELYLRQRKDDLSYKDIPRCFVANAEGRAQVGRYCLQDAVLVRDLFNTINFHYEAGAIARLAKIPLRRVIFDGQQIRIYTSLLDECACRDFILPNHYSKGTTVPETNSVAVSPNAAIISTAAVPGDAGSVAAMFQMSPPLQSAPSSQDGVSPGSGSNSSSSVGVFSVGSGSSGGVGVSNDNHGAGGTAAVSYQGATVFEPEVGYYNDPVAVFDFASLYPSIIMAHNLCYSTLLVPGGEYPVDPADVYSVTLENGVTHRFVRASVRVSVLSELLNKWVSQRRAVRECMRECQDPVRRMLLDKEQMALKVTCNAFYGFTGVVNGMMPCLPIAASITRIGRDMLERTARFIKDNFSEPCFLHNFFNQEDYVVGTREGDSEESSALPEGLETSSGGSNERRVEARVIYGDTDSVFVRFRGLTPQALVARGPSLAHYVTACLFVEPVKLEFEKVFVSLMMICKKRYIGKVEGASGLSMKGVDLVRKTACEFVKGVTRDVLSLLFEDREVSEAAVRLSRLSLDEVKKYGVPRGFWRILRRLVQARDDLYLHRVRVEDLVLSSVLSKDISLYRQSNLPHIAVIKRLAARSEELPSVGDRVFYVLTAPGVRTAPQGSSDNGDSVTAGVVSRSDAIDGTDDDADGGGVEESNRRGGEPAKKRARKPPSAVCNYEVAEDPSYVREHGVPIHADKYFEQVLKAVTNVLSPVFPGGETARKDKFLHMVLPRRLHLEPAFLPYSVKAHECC

Row | Compound | IC50 [µM]
1 | O=C(NCc1ccc(Cl)cc1)c1cnc2c(C(F)(F)F)cc(CCCO)cc2c1O [Example 123, N-(4-Chlorobenzyl)-4-hydroxy-6-(3-hydroxypropyl)-8-(trifluoromethyl)-3-quinolinecarboxamide] | 2.2
2 | CCSCCNS(=O)(=O)c1cc(F)c2ncc(C(=O)NCc3ccc(Cl)cc3)c(O)c2c1 [Example 251, N-(4-chlorobenzyl)-6-({[2-(ethylsulfanyl)ethyl]amino}sulfonyl)-8-fluoro-4-hydroxy-3-quinolinecarboxamide] | 18.7
3 | O=C(NCc1ccc(Cl)cc1)c1cnc2c(Cl)cccc2c1O [Example 46, 8-Chloro-N-[(4-chlorophenyl)methyl]-4-hydroxy-3-quinolinecarboxamide] | 2.8
4 | O=C(NCc1ccc(Cl)cc1)c1cnc2cc(NS(=O)(=O)c3ccc(Cl)cc3)ccc2c1O [Example 35, N-[(4-Chlorophenyl)methyl]-7-[[(4-chlorophenyl)sulfonyl]amino]-4-hydroxy-3-quinolinecarboxamide] | 9.2
5 | CCCc1ccc2ncc(C(=O)NCc3ccc(Cl)cc3)c(O)c2c1 [Example 151, N-(4-Chlorobenzyl)-4-hydroxy-6-propyl-3-quinolinecarboxamide] | 0.91
6 | CC(C)(C)O[PH](=O)OCCCc1cc(F)c2ncc(C(=O)NCc3ccc(Cl)cc3)c(O)c2c1 (stereo not shown) [Example 271, tert-Butyl 3-(3-{[(4-chlorobenzyl)amino]carbonyl}-8-fluoro-4-hydroxy-6-quinolinyl)propyl phosphonate] | 20.4
7 | O=C(NCc1ccc(Cl)cc1)c1cnc2c(F)cc(S(=O)(=O)NCc3ccc4c(c3)OCO4)cc2c1O [Example 212, 6-{[(1,3-benzodioxol-5-ylmethyl)amino]sulfonyl}-N-(4-chlorobenzyl)-8-fluoro-4-hydroxy-3-quinolinecarboxamide] | 14.5
8 | CSc1ccc2c(O)c(C(=O)NCc3ccc(Cl)cc3)cnc2c1 [Example 278, N-(4-Chlorobenzyl)-4-hydroxy-7-(methylsulfanyl)-3-quinolinecarboxamide] | 2.1
9 | O=C(NCc1ccc(Cl)cc1)c1cnc2c(F)cc(-c3ccccn3)cc2c1O [Example 90, N-(4-Chlorobenzyl)-8-fluoro-4-hydroxy-6-(2-pyridinyl)-3-quinolinecarboxamide] | 2.9
10 | C#CCNS(=O)(=O)c1cc(F)c2ncc(C(=O)NCc3ccc(Cl)cc3)c(O)c2c1 [Example 232, N-(4-chlorobenzyl)-8-fluoro-4-hydroxy-6-[(2-propynylamino)sulfonyl]-3-quinolinecarboxamide] | 23.4
11 | CN(CCS(=O)(=O)O)C(=O)CCCCCCC(=O)OCCCc1cc(F)c2ncc(C(=O)NCc3ccc(Cl)cc3)c(O)c2c1 | 11.5
12 | CC(C)C(NC(=O)OC(C)(C)C)C(=O)OCCCc1cc(F)c2ncc(C(=O)NCc3ccc(Cl)cc3)c(O)c2c1 (stereo not shown) [Example 146, 3-(3-{[(4-Chlorobenzyl)amino]carbonyl}-8-fluoro-4-hydroxy-6-quinolinyl)propyl 2-[(tert-butoxycarbonyl)amino]-3-methylbutanoate] | 38.7
13 | COc1cc(I)cc2c(O)c(C(=O)NCc3ccc(Cl)cc3)cnc12 [Example 117, N-(4-Chlorobenzyl)-4-hydroxy-6-iodo-8-methoxy-3-quinolinecarboxamide] | 8.7
14 | O=C(NNc1ccc(Cl)cc1)c1cnc2c(F)cc(I)cc2c1O [Example 54, 8-Fluoro-4-hydroxy-6-iodo-3-quinolinecarboxylic acid 2-(4-chlorophenyl)hydrazide] | 8.6
15 | O=C(O)/C=C/c1cc(F)c2ncc(C(=O)NCc3ccc(Cl)cc3)c(O)c2c1 [Example 113, (E)-3-(3-{[(4-Chlorobenzyl)amino]carbonyl}-8-fluoro-4-hydroxy-6-quinolinyl)-2-propenoic acid] | 10.4
16 | O=C(NCc1ccc(Cl)cc1)c1cnc2ccc(CCCO[PH](=O)O)cc2c1O [Example 272, 3-(3-{[(4-Chlorobenzyl)amino]carbonyl}-4-hydroxy-6-quinolinyl)propyl hydrogen phosphonate] | 8.6
